Measurements reported in patent US4146719A, “Piperazinyl derivatives of quinoline carboxylic acids” (priority 1977, dated 1979).
Values after ≈ are worked out from the molar mass of the structure shown. “Also recorded” adds a separate entry of the source.

Assays:
[1] = tested on: gram-positive and gram-negative bacteria including Pseudomonas aeruginosa; test: Antibacterial spectrum in vitro (summary in words); format: cell-based
[2] = tested on: Staphylococcus aureus 209P; test: Antibacterial activity in vitro, M.I.C., agar dilution streak method; format: cell-based; details: Staphylococcus aureus, 209P; Gram +; read-out: M.I.C.
[3] = tested on: Bacillus subtilis PCI 219; test: as above; format: cell-based; details: Bacillus subtilis, PCI219; Gram +; read-out: M.I.C.
[4] = tested on: Pseudomonas aeruginosa IID 1210; test: Preventive effect against systemic infection with Pseudomonas aeruginosa in mice; format: in vivo, Pseudomonas aeruginosa; mice (ddY, male)
Procedure: Systemic infection was produced by inoculating male mice (strain: ddY, 6 weeks old, body weight: 28-33g) in intraperitoneally with Pseudomonas aeruginosa IID 1210 suspended in 0.5 ml of Brain heart infusion broth (Eiken) containing 5% mucin. […] Each of these test materials was administered to the mice twice, immediately after and then 6 hours after the inoculation, and the therapeutic effect of each compounds was judged from the survival rate.
(1) Miller L. C. and M. L. Tainter: Estimation of the ED50 and its error by means of logarithmic-probit graph paper Proc. Soc. Exp. Biol. Med. 57 261-264 (1944)
(2) Litchfield J. T. and F. Wilcoxon: A simplified method of evaluating dose - effect J. Pharmacol. 92 99-113 (1948)

[5] = tested on: Escherichia coli NIHJ JC-2; test: Influence of liver homogenate on antibacterial activity; format: cell-based
Procedure: Nutrient agar was heated and melted. […] The diameter of the inhibition zone was measured.

[6] = tested on: E. coli ATCC 10536; test: Antibacterial activity in vitro, M.I.C., agar dilution streak method; format: cell-based, Escherichia coli; details: Escherichia coli, ATCC10536; Gram -; read-out: M.I.C.
[7] = tested on: Proteus vulgaris IFO 3167; test: as above; format: cell-based; details: Proteus vulgaris, IFO3167; Gram -; read-out: M.I.C.
[8] = tested on: Streptococcus pyogenes IID 692; test: as above; format: cell-based; details: Streptococcus pyogenes, IID692; Gram +; read-out: M.I.C.
[9] = tested on: Klebsiella pneumoniae IFO 3512; test: as above; format: cell-based; details: Klebsiella pneumoniae, IFO3512; Gram -; read-out: M.I.C.
[10] = rat, in vivo
[11] = tested on: Shigella sonnei IID 969; test: Antibacterial activity in vitro, M.I.C., agar dilution streak method; format: cell-based; details: Shigella sonnei, IID969; Gram -
[12] = tested on: Sta. aureus ATCC 14775; test: as above; format: cell-based, Staphylococcus aureus; details: Staphylococcus aureus, ATCC14775; Gram +; read-out: M.I.C.
[13] = tested on: Diplococcus pneumoniae IID 552; test: as above; format: cell-based; details: Streptococcus pneumoniae, IID552; Gram +; read-out: M.I.C.
[14] = tested on: Corynebacterium pyogenes IID 548; test: as above; format: cell-based; details: Corynebacterium pyogenes, IID548; Gram +
[15] = tested on: Pr. vulgaris XK Denken; test: as above; format: cell-based, Proteus vulgaris; details: Proteus vulgaris; Gram -; read-out: M.I.C.
[16] = Concentrations in urine of mice after a single oral administration; format: in vivo; details: mouse; for concentration at 3 h: 0-3 hours; for concentration at 3 h / concentration at 6 h / concentration at 24 h / concentration at 27 h: mean ±S.E., read-out: Urinary level; for concentration at 6 h: 3-6 hours; for concentration at 24 h: 6-24 hours; for concentration at 27 h: 24-27 hours
[17] = tested on: Ps. aeruginosa IID 1130; test: Antibacterial activity in vitro, M.I.C., agar dilution streak method; format: cell-based, Pseudomonas aeruginosa; details: Pseudomonas aeruginosa, IID1130; Gram -; read-out: M.I.C.
[18] = Concentrations in urine of rats after a single oral administration; format: in vivo; details: rat; for concentration at 3 h: 0-3 hours; for concentration at 3 h / concentration at 6 h / concentration at 24 h / concentration at 27 h: mean ±S.E., read-out: Urinary level; for concentration at 6 h: 3-6 hours; for concentration at 24 h: 6-24 hours; for concentration at 27 h: 24-27 hours
[19] = tested on: Ps. aeruginosa IFO 12689; test: Antibacterial activity in vitro, M.I.C., agar dilution streak method; format: cell-based, Pseudomonas aeruginosa; details: Pseudomonas aeruginosa, IFO12689; Gram -; read-out: M.I.C.
[20] = oral, read-out: time of concentrations peak in urine

SMILES: CCn1cc(C(=O)O)c(=O)c2cc(F)c(N3CCNCC3)cc21 [Compound (II), 1-ethyl-6-fluoro-1,4-dihydro-7-(1-piperazinyl)-4-oxoquinoline-3-carboxylicacid]
- antibacterial activity (in words) [1]: more active than nalidixic acid and pipemidic acid against both of gram-positive and gram-negative bacteria; also recorded: more active than gentamicin and carbenicillin against gram-negative bacteria including Pseudomonas aeruginosa; also recorded: inhibited even such bacteria those were not susceptible to nalidixic acid, pipemidic acid and carbenicillin
- MIC [2]: 0.78 µg/mL (≈ 2.44 µM)
- MIC [3]: 0.39 µg/mL (≈ 1.22 µM)
- ED90 ([4]; Pseudomonas aeruginosa, IID1210): 185 mg/kg
- ED50 ([4]; Pseudomonas aeruginosa, IID1210, po, 6 h, read-out: ED50 (95% confidence limit)): 98 mg/kg
- protection against systemic infection (in words) ([4]; mice, listed as EXAMPLE 2): effectively protected the mice from Pseudomonas aeruginosa infection; also recorded: more potent than pipemidic acid and carbenicillin
- antibacterial activity in presence of liver homogenate (in words) [5]: decreased by liver and kidney homogenate
- MIC [6]: 0.05 µg/mL (≈ 0.157 µM)
- MIC [7]: 0.05 µg/mL (≈ 0.157 µM)
- MIC [8]: 3.13 µg/mL (≈ 9.8 µM)
- MIC [9]: 0.05 µg/mL (≈ 0.157 µM)
- dose dependence of serum concentration (in words) [10]: depended on the dose from 25 mg/kg to 400 mg/kg
- MIC [11]: 0.1 µg/mL (≈ 0.313 µM)
- MIC [12]: 1.56 µg/mL (≈ 4.89 µM)
- MIC [13]: 12.5 µg/mL (≈ 39.1 µM)
- MIC [14]: 3.13 µg/mL
- MIC [15]: 0.2 µg/mL (≈ 0.626 µM)
- concentration at 3 h ([16]; 1.56 mg/kg oral): 530 ± 60 ng/mL
- concentration at 6 h ([16]; 1.56 mg/kg oral): 220 ± 40 ng/mL
- concentration at 24 h ([16]; 1.56 mg/kg oral): 40 ± 30 ng/mL
- concentration at 27 h ([16]; 1.56 mg/kg oral): 30 ± 20 ng/mL
- concentration at 3 h ([16]; 3.13 mg/kg oral): 1760 ± 190 ng/mL
- concentration at 6 h ([16]; 3.13 mg/kg oral): 1460 ± 230 ng/mL
- concentration at 24 h ([16]; 3.13 mg/kg oral): 270 ± 40 ng/mL
- concentration at 27 h ([16]; 3.13 mg/kg oral): 140 ± 10 ng/mL
- concentration at 3 h ([16]; 6.25 mg/kg oral): 3700 ± 260 ng/mL
- concentration at 6 h ([16]; 6.25 mg/kg oral): 2040 ± 130 ng/mL
- concentration at 24 h ([16]; 6.25 mg/kg oral): 3010 ± 170 ng/mL
- concentration at 27 h ([16]; 6.25 mg/kg oral): 380 ± 50 ng/mL
- concentration at 3 h ([16]; 12.5 mg/kg oral): 10300 ± 900 ng/mL
- concentration at 6 h ([16]; 12.5 mg/kg oral): 8300 ± 700 ng/mL
- concentration at 24 h ([16]; 12.5 mg/kg oral): 7400 ± 800 ng/mL
- concentration at 27 h ([16]; 12.5 mg/kg oral): 1200 ± 100 ng/mL
- concentration at 3 h ([16]; 25.0 mg/kg oral): 16200 ± 3300 ng/mL
- concentration at 6 h ([16]; 25.0 mg/kg oral): 20300 ± 1700 ng/mL
- concentration at 24 h ([16]; 25.0 mg/kg oral): 11700 ± 900 ng/mL
- concentration at 27 h ([16]; 25.0 mg/kg oral): 2500 ± 200 ng/mL
- concentration at 3 h ([16]; 50.0 mg/kg oral): 33100 ± 2800 ng/mL
- concentration at 6 h ([16]; 50.0 mg/kg oral): 27200 ± 3200 ng/mL
- concentration at 24 h ([16]; 50.0 mg/kg oral): 23100 ± 2000 ng/mL
- concentration at 27 h ([16]; 50.0 mg/kg oral): 7700 ± 1100 ng/mL
- Tmax [16, 20]: 0 to 6 h
- MIC [17]: 0.78 µg/mL (≈ 2.44 µM)
- concentration at 3 h ([18]; 1.56 mg/kg oral): 1360 ± 140 ng/mL
- concentration at 6 h ([18]; 1.56 mg/kg oral): 930 ± 140 ng/mL
- concentration at 24 h ([18]; 1.56 mg/kg oral): 170 ± 50 ng/mL
- concentration at 27 h ([18]; 1.56 mg/kg oral): 40 ± 10 ng/mL
- concentration at 3 h ([18]; 3.13 mg/kg oral): 3390 ± 550 ng/mL
- concentration at 6 h ([18]; 3.13 mg/kg oral): 3780 ± 440 ng/mL
- concentration at 24 h ([18]; 3.13 mg/kg oral): 580 ± 90 ng/mL
- concentration at 27 h ([18]; 3.13 mg/kg oral): 30 ng/mL
- concentration at 3 h ([18]; 6.25 mg/kg oral): 9690 ± 2300 ng/mL
- concentration at 6 h ([18]; 6.25 mg/kg oral): 8080 ± 1500 ng/mL
- concentration at 24 h ([18]; 6.25 mg/kg oral): 1360 ± 200 ng/mL
- concentration at 27 h ([18]; 6.25 mg/kg oral): 40 ng/mL
- concentration at 3 h ([18]; 12.5 mg/kg oral): 21900 ± 3600 ng/mL
- concentration at 6 h ([18]; 12.5 mg/kg oral): 16800 ± 1600 ng/mL
- concentration at 24 h ([18]; 12.5 mg/kg oral): 4000 ± 500 ng/mL
- concentration at 27 h ([18]; 12.5 mg/kg oral): 60 ± 20 ng/mL
- concentration at 3 h ([18]; 25.0 mg/kg oral): 56800 ± 11100 ng/mL
- concentration at 6 h ([18]; 25.0 mg/kg oral): 46400 ± 3800 ng/mL
- concentration at 24 h ([18]; 25.0 mg/kg oral): 13500 ± 3000 ng/mL
- concentration at 27 h ([18]; 25.0 mg/kg oral): 1200 ± 500 ng/mL
- concentration at 3 h ([18]; 50.0 mg/kg oral): 89300 ± 19500 ng/mL
- concentration at 6 h ([18]; 50.0 mg/kg oral): 99200 ± 15900 ng/mL
- concentration at 24 h ([18]; 50.0 mg/kg oral): 32200 ± 100 ng/mL
- concentration at 27 h ([18]; 50.0 mg/kg oral): 3100 ± 900 ng/mL
- Tmax [18, 20]: 0 to 6 h
- MIC [19]: 1.56 µg/mL (≈ 4.89 µM)
